Assay results as given in patent publication US20260001875A1, “AMINOPYRIMIDINYL DERIVATIVES FOR THE TREATMENT OF PARKINSON'S DISEASE” (UNIVERSITY OF DUNDEE, priority 2022, published 2026).
Read-outs that look alike come from different tables or passages of the source.

Test system: Rab10 pThr73
Experiment: Rab10 Thr73 dephosphorylation (immunoblot) in LRRK2^G2019S MEFs
Format: cell-based
Settings: Mus musculus, read-out: pRab10 inhibited in LRRK2^G2019S MEFs

Compound	inhibition at 0.033 µM (33 nM/4 h treatment)	inhibition at 0.033 µM (33 nM/24 h treatment)
CNc1nc(Nc2ccc(C(=O)N3CCN(CCOCCOCCSC(C)(C)[C@H](NC(=O)C4(F)CC4)C(=O)N4C[C@H](O)C[C@H]4C(=O)NCc4ccc(-c5scnc5C)cc4)CC3)cc2OC)ncc1Cl [SD75, (2S,4R)-1-((R)-3-((2-(2-(2-(4-(4-((5-chloro-4-(methylamino)pyrimidin-2-yl)amino)-3-methoxybenzoyl)piperazin-1-yl)ethoxy)ethoxy)ethyl)thio)-2-(1-fluorocyclopropane-1-carboxamido)-3-methylbutanoyl)-4-hydroxy-N-(4-(4-methylthiazol-5-yl)benzyl)pyrrolidine-2-carboxamide]	0 to 60%	0 to 70%
CNc1nc(Nc2ccc(C(=O)N3CCN(C[C@H]4CC[C@@H](CSC(C)(C)[C@H](NC(=O)C5(F)CC5)C(=O)N5C[C@H](O)CC5C(=O)NCc5ccc(-c6scnc6C)cc5)CC4)CC3)cc2OC)ncc1Cl (stereo partly shown) [XL01134]	0 to 70%	0 to 90%
